Measured values taken from ChEMBL document CHEMBL1154627, “Structure-activity relationship studies of targeting ligands against breast cancer cells” (J Med Chem, 2009).
pIC50: −log10 of the molar value. The source made the active and inactive calls. No cut-off for these calls is given here.

Molecular target: T1, Integrin alpha-3 (Homo sapiens) (UniProt P26006)
T1 sequence (whole entry): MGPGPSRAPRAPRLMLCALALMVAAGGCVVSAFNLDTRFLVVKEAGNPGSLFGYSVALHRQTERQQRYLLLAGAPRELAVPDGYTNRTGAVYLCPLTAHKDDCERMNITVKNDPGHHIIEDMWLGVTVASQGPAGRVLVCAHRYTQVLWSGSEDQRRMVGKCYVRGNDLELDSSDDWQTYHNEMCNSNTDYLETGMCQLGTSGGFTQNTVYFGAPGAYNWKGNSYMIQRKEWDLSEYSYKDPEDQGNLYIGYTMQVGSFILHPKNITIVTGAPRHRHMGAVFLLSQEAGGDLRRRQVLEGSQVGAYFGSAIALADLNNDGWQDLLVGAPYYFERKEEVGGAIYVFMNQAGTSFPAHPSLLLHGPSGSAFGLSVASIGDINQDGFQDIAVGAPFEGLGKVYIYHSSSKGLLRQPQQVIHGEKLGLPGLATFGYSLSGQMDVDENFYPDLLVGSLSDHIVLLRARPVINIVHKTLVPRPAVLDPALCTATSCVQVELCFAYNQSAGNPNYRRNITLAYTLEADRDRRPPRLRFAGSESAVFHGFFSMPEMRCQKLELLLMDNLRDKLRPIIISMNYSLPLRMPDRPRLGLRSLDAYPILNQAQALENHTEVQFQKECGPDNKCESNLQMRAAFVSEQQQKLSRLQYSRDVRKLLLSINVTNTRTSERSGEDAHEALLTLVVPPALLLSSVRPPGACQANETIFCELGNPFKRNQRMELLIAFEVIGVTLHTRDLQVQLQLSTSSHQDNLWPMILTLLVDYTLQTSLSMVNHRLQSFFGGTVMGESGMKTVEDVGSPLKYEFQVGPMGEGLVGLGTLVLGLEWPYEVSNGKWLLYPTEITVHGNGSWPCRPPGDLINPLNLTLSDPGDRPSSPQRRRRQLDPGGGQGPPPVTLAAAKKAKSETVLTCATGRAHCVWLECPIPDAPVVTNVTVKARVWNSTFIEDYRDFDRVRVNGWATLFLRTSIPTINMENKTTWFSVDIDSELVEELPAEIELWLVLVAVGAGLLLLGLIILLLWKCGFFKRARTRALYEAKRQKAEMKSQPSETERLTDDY
Test: Binding affinity to alpha3 integrin receptor in human MDA-MB-231 cells by fluorescent microscopy
Type: cell-based

With NC(=O)C[C@@H]1NC(=O)[C@@H]2C[C@@H](O)CN2C(=O)CNC(=O)[C@H](c2cc(F)cc(F)c2)NC(=O)CNC(=O)[C@@H](CC(=O)O)NC(=O)[C@H](N)CSSC[C@H](C(N)=O)NC1=O as the compound, how does the Activity read?
Its Activity is “Active”.

System: Mus musculus
Test: In vivo binding affinity to alpha3 integrin receptor in human MDA-MB-231 cells xenografted in iv dosed athymic nude mouse nu/nu by fluorescent imaging
Type: functional, organism-based

Which Activity does the source give for NC(=O)C[C@@H]1NC(=O)[C@@H]2C[C@@H](O)CN2C(=O)CNC(=O)[C@H](c2cc(F)cc(F)c2)NC(=O)CNC(=O)[C@@H](CC(=O)O)NC(=O)[C@H](N)CSSC[C@H](C(N)=O)NC1=O here?
The Activity was “Active”.

System: not listed separately
Test: Binding affinity to alpha3beta1 integrin receptor in human MDA-MB-231 cells assessed as inhibition of cell binding to immobilized LXY1 peptide by cell adherence assay
Type: cell-based

With CCCCCCN[C@@H]1CSSC[C@H](C(N)=O)NC(=O)[C@H](CC(N)=O)NC(=O)[C@@H]2C[C@@H](O)CN2C(=O)CNC(=O)[C@H](Cc2ccc(O)c([N+](=O)[O-])c2)NC(=O)CNC(=O)[C@@H](CC(=O)O)NC1=O as the compound, how does the pIC50 read?
The pIC50 was less than 4.60.

With NC(=O)C[C@@H]1NC(=O)[C@@H]2C[C@@H](O)CN2C(=O)CNC(=O)[C@@H]2C[C@@H](F)CN2C(=O)CNC(=O)[C@@H](CC(=O)O)NC(=O)[C@H](N)CSSC[C@H](C(N)=O)NC1=O as the compound, how does the pIC50 read?
Its pIC50 is 4.73.

With NC(=O)C[C@@H]1NC(=O)[C@@H]2C[C@@H](O)CN2C(=O)CNC(=O)[C@H](Cc2ccc(O)c(N)c2)NC(=O)CNC(=O)[C@@H](CC(=O)O)NC(=O)[C@H](N)CSSC[C@H](C(N)=O)NC1=O as the compound, how does the pIC50 read?
The pIC50 was less than 4.60.

With NC(=O)C[C@@H]1NC(=O)[C@@H]2C[C@@H](O)CN2C(=O)CNC(=O)[C@H](Cc2ccc(O)c([N+](=O)[O-])c2)NC(=O)CNC(=O)[C@@H](CC(=O)O)NC(=O)[C@H](NCc2ccc(C(F)(F)F)cc2)CSSC[C@H](C(N)=O)NC1=O as the compound, how does the pIC50 read?
Its pIC50 is less than 4.60.

With CC1(C)SSC(C)(C)[C@H](C(N)=O)NC(=O)[C@H](CC(N)=O)NC(=O)[C@@H]2C[C@@H](O)CN2C(=O)CNC(=O)[C@H](Cc2ccc(O)c([N+](=O)[O-])c2)NC(=O)CNC(=O)[C@@H](CC(=O)O)NC(=O)[C@@H]1N as the compound, how does the pIC50 read?
Its pIC50 is less than 4.60.

With NC(=O)C[C@@H]1NC(=O)[C@@H]2C[C@@H](O)CN2C(=O)CNC(=O)[C@H](Cc2ccc(O)c([N+](=O)[O-])c2)NC(=O)CNC(=O)[C@@H](CC(=O)O)NC(=O)[C@@H](N)CCCCNC1=O as the compound, how does the pIC50 read?
The pIC50 was less than 4.60.

With NC(=O)C[C@@H]1NC(=O)[C@@H]2C[C@@H](O)CN2C(=O)CNC(=O)[C@H](Cc2ccc(O)c([N+](=O)[O-])c2)NC(=O)CNC(=O)[C@@H](CC(=O)O)NC(=O)[C@H](NCC2CCCCC2)CSSC[C@H](C(N)=O)NC1=O as the compound, how does the pIC50 read?
Its pIC50 is less than 4.60.

With NC(=O)C[C@@H]1NC(=O)[C@@H]2C[C@@H](O)CN2C(=O)CNC(=O)[C@H](c2ccc(F)cc2)NC(=O)CNC(=O)[C@@H](CC(=O)O)NC(=O)[C@H](N)CSSC[C@H](C(N)=O)NC1=O as the compound, how does the pIC50 read?
Its pIC50 is 4.63.

With NC(=O)C[C@@H]1NC(=O)[C@@H]2C[C@@H](O)CN2C(=O)CNC(=O)[C@H](c2cc(F)cc(F)c2)NC(=O)CNC(=O)[C@@H](CC(=O)O)NC(=O)[C@H](N)CSSC[C@H](C(N)=O)NC1=O as the compound, how does the pIC50 read?
The pIC50 was 5.68.

With NC(=O)C[C@@H]1NC(=O)[C@@H]2C[C@@H](O)CN2C(=O)CNC(=O)[C@H](Cc2ccc(O)c([N+](=O)[O-])c2)NC(=O)CNC(=O)[C@@H](CC(=O)O)NC(=O)[C@H](NC(=O)Nc2ccc(Cl)cc2)CSSC[C@H](C(N)=O)NC1=O as the compound, how does the pIC50 read?
The pIC50 was less than 4.60.

With NC(=O)C[C@@H]1NC(=O)[C@@H]2C[C@@H](O)CN2C(=O)CNC(=O)[C@@H]2CCN2C(=O)CNC(=O)[C@@H](CC(=O)O)NC(=O)[C@H](N)CSSC[C@H](C(N)=O)NC1=O as the compound, how does the pIC50 read?
Its pIC50 is 4.67.

With NC(=O)C[C@@H]1NC(=O)[C@@H]2C[C@@H](O)CN2C(=O)CNC(=O)[C@H](Cc2ccc(O)c([N+](=O)[O-])c2)NC(=O)CNC(=O)[C@@H](CC(=O)O)NC(=O)[C@H](NC(=O)CCc2ccccc2)CSSC[C@H](C(N)=O)NC1=O as the compound, how does the pIC50 read?
The pIC50 was less than 4.60.

With NC(=O)C[C@@H]1NC(=O)[C@@H]2C[C@@H](O)CN2C(=O)CNC(=O)[C@@H]2SCCN2C(=O)CNC(=O)[C@@H](CC(=O)O)NC(=O)[C@H](N)CSSC[C@H](C(N)=O)NC1=O as the compound, how does the pIC50 read?
Its pIC50 is 4.98.

With NC(=O)C[C@@H]1NC(=O)[C@@H]2C[C@@H](O)CN2C(=O)CNC(=O)[C@H](Cc2ccc(O)c([N+](=O)[O-])c2)NC(=O)CNC(=O)[C@@H](CC(=O)O)NC(=O)[C@H](NCc2ccc(F)c(F)c2)CSSC[C@H](C(N)=O)NC1=O as the compound, how does the pIC50 read?
Its pIC50 is less than 4.60.

With COc1ccc(NC(=O)N[C@@H]2CSSC[C@H](C(N)=O)NC(=O)[C@H](CC(N)=O)NC(=O)[C@@H]3C[C@@H](O)CN3C(=O)CNC(=O)[C@H](Cc3ccc(O)c([N+](=O)[O-])c3)NC(=O)CNC(=O)[C@@H](CC(=O)O)NC2=O)cc1OC as the compound, how does the pIC50 read?
Its pIC50 is less than 4.60.

With NC(=O)C[C@@H]1NC(=O)[C@@H]2C[C@@H](O)CN2C(=O)CNC(=O)[C@H](c2ccccc2Cl)NC(=O)CNC(=O)[C@@H](CC(=O)O)NC(=O)[C@H](N)CSSC[C@H](C(N)=O)NC1=O as the compound, how does the pIC50 read?
Its pIC50 is 4.72.

System: Mus musculus
Test: Ex vivo binding affinity to alpha3 integrin receptor in human MDA-MB-231 cells xenografted in iv dosed athymic nude mouse nu/nu by fluorescent imaging
Type: functional, organism-based

For NC(=O)C[C@@H]1NC(=O)[C@@H]2C[C@@H](O)CN2C(=O)CNC(=O)[C@H](c2cc(F)cc(F)c2)NC(=O)CNC(=O)[C@@H](CC(=O)O)NC(=O)[C@H](N)CSSC[C@H](C(N)=O)NC1=O, which Activity is on record?
The Activity was “Active”.
